# Numbers after ± are expanded uncertainties.
# Conditions: Liquid, Rate of evaporation
vapor or sublimation pressure (523.15 K) [kPa],vapor or sublimation pressure (548.15 K) [kPa],vapor or sublimation pressure (573.15 K) [kPa],vapor or sublimation pressure (598.15 K) [kPa],vapor or sublimation pressure (623.15 K) [kPa],vapor or sublimation pressure (463.15 K) [kPa],vapor or sublimation pressure (483.15 K) [kPa],vapor or sublimation pressure (503.15 K) [kPa],vapor or sublimation pressure (543.15 K) [kPa],Structure (SMILES)
1.31 ± 0.1,4.49 ± 0.35,12.3 ± 1,30 ± 2.3,65 ± 5,–,–,–,–,OC[C@@H](O)[C@@H](O)[C@H](O)[C@@H](O)CO [D-sorbitol]
34.5 ± 2.7,–,–,–,–,3.85 ± 0.3,8.64 ± 0.67,17.9 ± 1.4,62.6 ± 4.8,OCC(O)CO [glycerol]
